Data on one compound can be found in article PMC10060569 (Frontiers in Pharmacology, 2023).

This experiment has as its target T1, hP2X2/3R (Homo sapiens, UniProt P56373+Q9UBL9).
T1 construct: expressed in transfected cells; host or cells: Xenopus laevis oocytes (co-injection of cRNAs)
T1 sequence (Q9UBL9 1-471): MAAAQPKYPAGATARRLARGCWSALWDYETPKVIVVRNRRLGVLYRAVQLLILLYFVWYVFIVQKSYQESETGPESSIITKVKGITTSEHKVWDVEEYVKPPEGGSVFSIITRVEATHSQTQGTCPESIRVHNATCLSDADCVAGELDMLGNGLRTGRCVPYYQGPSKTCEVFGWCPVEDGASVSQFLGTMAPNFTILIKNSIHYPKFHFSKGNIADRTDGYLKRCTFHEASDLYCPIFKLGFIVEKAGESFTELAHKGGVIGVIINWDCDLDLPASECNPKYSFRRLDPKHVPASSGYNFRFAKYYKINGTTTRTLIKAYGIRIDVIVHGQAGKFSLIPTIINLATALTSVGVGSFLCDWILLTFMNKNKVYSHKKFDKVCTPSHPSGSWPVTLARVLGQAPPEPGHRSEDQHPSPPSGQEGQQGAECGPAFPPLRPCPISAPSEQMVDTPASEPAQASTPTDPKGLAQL
T1 sequence (P56373 1-397): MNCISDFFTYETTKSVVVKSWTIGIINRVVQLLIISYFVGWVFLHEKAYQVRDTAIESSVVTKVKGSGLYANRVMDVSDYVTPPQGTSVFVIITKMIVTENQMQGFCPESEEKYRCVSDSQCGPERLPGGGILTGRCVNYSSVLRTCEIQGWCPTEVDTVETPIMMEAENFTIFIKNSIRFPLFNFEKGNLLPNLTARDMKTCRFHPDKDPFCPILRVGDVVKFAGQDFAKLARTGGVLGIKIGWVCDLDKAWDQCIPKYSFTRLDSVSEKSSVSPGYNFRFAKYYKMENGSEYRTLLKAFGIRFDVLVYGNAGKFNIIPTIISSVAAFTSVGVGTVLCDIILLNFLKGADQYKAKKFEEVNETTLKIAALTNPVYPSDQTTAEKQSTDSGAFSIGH
Kind of experiment: TEVC of α,β-meATP-induced currents, heteromeric hP2X2/3R in X. laevis oocytes (steady-state protocol). The format is cell-based. The source says:
Oocyte expression plasmids encoding the wild-type (wt) and N-terminally His-tagged (His-) fusion constructs of the hP2X2R, hP2X3R, hP2X4R, and hP2X7R, and the mutant His-^20RMVL^23KVIV^23S^26N-hP2X1R, S^15V-rP2X3R, and His-S^15V-hP2X3R were the same as used in previous research ([Hausmann et al., 2006]; [Wolf et al., 2011]; [Hausmann et al., 2014]; [Obrecht et al., 2019]). In most cases, the N-terminal His-tagged variants of P2XRs were used here and in the previous studies to allow biochemical analyses on affinity-purified proteins using the same constructs. Although this was not required for the present study, it allows for better comparability with our previous studies. Capped cRNAs of different P2XRs were already available in the research group or were synthesized as previously described ([Schmalzing et al., 1991]; [Stolz et al., 2015]). cRNA was injected into collagenase-defolliculated X. laevis oocytes in aliquots of 41 nl or 23 nl (see Supplementary Table S1 for the amount of cRNA used for expression of the indicated P2XR) using a Nanoliter 2000 injector (World Precision Instruments, Sarasota, United States of America) as described previously ([Hausmann et al., 2014]; [Stolz et al., 2015]; [Obrecht et al., 2019]). To express the heteromeric hP2X2/3 receptor, cRNAs encoding His-hP2X2R and wt-hP2X3R were coinjected at a ratio (w/w) of 1:6. Oocytes were stored at 19°C in an oocyte ringer solution (ORi^+) containing 90 mM NaCl, 1 mM KCl, 1 mM CaCl2, 1 mM MgCl2, and 10 mM HEPES (Carl Roth, Karlsruhe, Germany) adjusted to pH 7.4 with NaOH and supplemented with 50 μg/ml gentamicin (AppliChem, Darmstadt, Germany). The procedures followed for the maintenance of and the surgical treatment for X. laevis adults were approved by the governmental animal care and use committee of the State Agency for Nature, Environment, and Consumer Protection (LANUV, Recklinghausen, Germany; reference no. 81-02.04.2019. A355), in compliance with Directive 2010/63/EU of the European Parliament and of the Council on the protection of animals used for scientific purpose.
Ion currents mediated by P2X receptors were evoked by the indicated concentration of ATP or α,β-meATP and were recorded 1 or 2 days after cRNA injection at ambient temperature at a holding potential of −60 mV by two-electrode voltage clamp (TEVC) as previously described ([Hausmann et al., 2006]). Calcium-free ORi^− solution (90 mM NaCl, 1 mM KCl, 2 mM MgCl2, 10 mM HEPES, pH 7.4) was used to avoid bias due to calcium-activated chloride channels (CaCC) endogenously expressed in X. laevis oocytes ([Miledi, 1982]; [Methfessel et al., 1986]). For recordings of wt-hP2X7R, the composition of the ORi^− solution was modified according to protocols described previously and contained 100 mM NaCl, 2.5 mM KCl, 1 mM MgCl2, 5 mM HEPES, pH 7.4 ([Klapperstück et al., 2000]). The oocytes were continuously superfused with ORi^− by gravity flow (5–10 ml/min). The agonists ATP or α,β-meATP and the investigated NSAIDs were diluted in ORi^− on the day of the recording. The following agonist concentrations were used for the different P2X subtypes: 1 μM ATP (hP2X1R mutant, hP2X3R, rP2X3R, S^15V-hP2X3R, and S^15V-rP2X3R); 10 μM ATP (hP2X2R and hP2X4R); 300 μM free ATP^4- (hP2X7R); and 1 μM α,β-meATP (hP2X2/3R). […]

Like-named read-outs stand apart in the source and are kept apart here.

The IC50 is the concentration that gives 50% inhibition. Usually inhibition stands for the share of the control response that was lost under treatment. Consider `O=C(O)Cc1ccccc1Nc1c(Cl)cccc1Cl` [Diclofenac, diclofenac], for which half-maximal inhibition (1 µM α,β-meATP, steady-state protocol, X. laevis oocytes) (IC50) was put at 76.7 µM. For the setting “3–10 µM diclofenac”, the “reduction of current amplitude in the presence of 3–10 µM diclofenac” value is reported as 20%–30%. Moreover, the inhibition at 30 µM by setting is: (read-out: % inhibition by 30 µM diclofenac of 1 µM α,β-meATP-induced current) 44.8%; (read-out: % inhibition by 30 µM diclofenac of 30 µM α,β-meATP-induced current) 25.1%. For the setting “read-out: Max. inhibition at 1 mM”, the inhibition at 1000 µM was found to be 97%.
